Test results: patent US20260306525A1, “COMBINATION THERAPY GLUCOCORTICOIDS AND GINSENOSIDE” (FYTAGORAS B.V., priority 2023, published 2026)

Columns and labels:
gr = experiment: qPCR gr mRNA level in zebrafish larvae; type: in vivo, zebrafish (Danio rerio); conditions: short-term (6 h) and long-term (5 days); beclomethasone 10 μM, Rg1 50 μM or combination
Method: […] Groups of 15 larvae were collected in TRIzol reagent (ThermoFisher) and total RNA was isolated using miRNeasy mini kit (Qiagen, Hilden, Germany). For experiments in HeLa cells, cells were seeded in 6 well plates and after treatment, the cells were removed from the wells using TRIzol reagent and mRNA was isolated using miRNeasy mini kit (Qiagen) according to the manufacturer's instructions. The RNA samples were DNAse-treated utilizing the DNA-free™ DNA Removal Kit (ThermoFisher Scientific). The cDNA synthesis was performed using the iScript cDNA synthesis kit (Bio-Rad Laboratories, Hercules, CA, USA) using 1 μg of RNA per sample. For qPCR, 10 μM of forward primer and 10 μM of reverse primer, 12.5 μl of IQ SYBR Green Supermix (Bio-Rad Laboratories), and 2 μl of cDNA were added to the qPCR reaction mixture. […] The qPCR reactions were performed on a MyiQ-single-color real-time PCR detection system (Bio-Rad Laboratories), with initial denaturation for 3 min, 95° C., and 40 cycles of 15 s at 95.5° C., 15 s at 60° C., and 30 s at 72° C. Cycle threshold values (Ct values, i.e. the cycle numbers at which a threshold value of the fluorescence intensity was reached) were determined for each sample. […] The fold change per sample (compared to the respective control group) was calculated using the […]Ct method.

GILZ = experiment: qPCR GILZ expression in HeLa cells (GR transactivation); type: cell-based, human; conditions: beclomethasone 1 μM, Rg1 50 μM or combination
Method: (§1) HeLa (human cervical cancer) cells were cultured in Dulbecco's Modified Eagle's (DMEM) High Glucose (HG) medium without phenol red supplemented with 10% Fetal Calf Serum (FCS) and 10% Glutamax (Sigma-Aldrich). The cells were maintained at 37° C. and 5% CO2. At 24 h before adding the treatment, the medium was replaced by DMEM HG with 10% charcoal-inactivated serum and 10% Glutamax (Sigma-Aldrich). The cells were exposed to short- and long-term compound treatments. […] Subsequently, TNF-α (10 ng/ml) was added along with the compound treatments for 6 h (this last step was not added in the actinomycin-D and cycloheximide experiments).
(§2) To determine levels of gene expression in zebrafish larvae, 3 dpf larvae were used in both wounded and non-wounded conditions, and after short- and long-term treatments. Groups of 15 larvae were collected in TRIzol reagent (ThermoFisher) and total RNA was isolated using miRNeasy mini kit (Qiagen, Hilden, Germany). For experiments in HeLa cells, cells were seeded in 6 well plates and after treatment, the cells were removed from the wells using TRIzol reagent and mRNA was isolated using miRNeasy mini kit (Qiagen) according to the manufacturer's instructions. The RNA samples were DNAse-treated utilizing the DNA-free™ DNA Removal Kit (ThermoFisher Scientific). The cDNA synthesis was performed using the iScript cDNA synthesis kit (Bio-Rad Laboratories, Hercules, CA, USA) using 1 μg of RNA per sample. For qPCR, 10 μM of forward primer and 10 μM of reverse primer, 12.5 μl of IQ SYBR Green Supermix (Bio-Rad Laboratories), and 2 μl of cDNA were added to the qPCR reaction mixture. […] The qPCR reactions were performed on a MyiQ-single-color real-time PCR detection system (Bio-Rad Laboratories), with initial denaturation for 3 min, 95° C., and 40 cycles of 15 s at 95.5° C., 15 s at 60° C., and 30 s at 72° C. Cycle threshold values (Ct values, i.e. the cycle numbers at which a threshold value of the fluorescence intensity was reached) were determined for each sample. The gene expression level for each sample was normalized using the expression of ppial (peptidylprolyl isomerase Ab (cyclophilin A)) for zebrafish samples, and 18S rRNA for human cells. The fold change per sample (compared to the respective control group) was calculated using the […]Ct method.

mmp9 = experiment: qPCR mmp9 expression in zebrafish larvae; type: in vivo, zebrafish (Danio rerio); conditions: Example 2, wounded larvae
Method: To determine mRNA levels of specific genes in zebrafish, 3 dpf larvae were used (wounded and non-wounded) and after 6 h of chemical treatments (2 h pre-wounding, 4 h post-wounding), as indicated. Per sample, groups of 15 larvae were collected in TRIzol reagent (Thermo Fisher Scientific, Waltham, MA, USA), and total RNA was isolated using the miRNeasy mini kit (Qiagen, Hilden, Germany). For similar experiments in Hela cells, cells were seeded in 6 well plates, and after 6 h of chemical treatment, the cells were removed from the wells using TRIzol reagent, and total RNA was isolated using the miRNeasy mini kit according to the manufacturer's instructions. The RNA samples were DNAse-treated utilizing the DNA-free™ DNA Removal Kit (Thermo Fisher Scientific). The cDNA synthesis was performed using the iScript cDNA synthesis kit (Bio-Rad Laboratories, Hercules, CA, USA) using 1 μg of RNA per sample. For the PCR reactions, 10 μM of forward and 10 μM of reverse primer, 12.5 μl of iQ SYBR Green Supermix (Bio-Rad), and 2 μl of cDNA were added to the qPCR reaction mixture. […] Cycle threshold values (Ct values, i.e. the cycle numbers at which a threshold value of the fluorescence intensity was reached) were determined for each sample. […] The fold change per sample (compared to the respective control group) was calculated using the ΔΔCt method.

IL8 = experiment: qPCR IL8 expression in TNF-α-treated HeLa cells; type: cell-based, human; conditions: for IL8 expression (TNF-α induced): 0.01 μM beclomethasone, 20 μM Rg1 or combination; for IL8 expression, long-term: 30 h
Method: as §1, §2

[1] = beclomethasone 1 μM, Rg1 20 μM or combination

SMILES | gr mRNA level (gr) | GILZ expression, long-term (GILZ) | GILZ expression, short-term (GILZ) | mmp9 expression (mmp9) | IL8 expression (TNF-α induced) (IL8; 6 h) | IL8 expression, long-term (IL8; [1]) | IL8 expression, short-term (IL8; beclomethasone 1 μM, Rg1 20 μM or combination, 6 h)
C[C@H]1C[C@H]2[C@@H]3CCC4=CC(=O)C=C[C@]4(C)[C@@]3(Cl)[C@@H](O)C[C@]2(C)[C@@]1(O)C(=O)CO [beclomethasone, reference compound] | suppressed the gr mRNA level only after long-term treatment | reduced over time | strongly increased the expression of these genes after short-term treatment | suppressed the expression levels of il1b, il6 and mmp9, similarly to Bec | slightly suppressed | the suppressive effects of beclomethasone were significantly reduced after long-term treatment | 
CC(C)=CCC[C@](C)(O[C@@H]1O[C@H](CO)[C@@H](O)[C@H](O)[C@H]1O)[C@H]1CC[C@]2(C)[C@@H]1[C@H](O)C[C@@H]1[C@@]3(C)CC[C@H](O)C(C)(C)[C@@H]3[C@@H](O[C@@H]3O[C@H](CO)[C@@H](O)[C@H](O)[C@H]3O)C[C@]12C [Rg1, (3β,6α, 12β)-3,12-Dihydroxydammar-24-ene-6,20-diyl bis-β-D-glucopyranoside] | did not affect the gr mRNA level | did not affect the expression of these genes | did not affect the expression of these genes |  | slightly suppressed | more strongly after long-term treatment | slightly suppressed
